Data reported in the supplement of paper PMC11451515.

Tested on: NOMO1
Test: cell viability relative to DMSO control; higher = less cytotoxic
Conditions: 48 h
Procedure, shortened: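 Leukemia cells (NOMO1 or SEM, 500 cells/well; P12-Ichikawa, 1000 cells/well) were seeded in 5 μl in 1536-well plates after at least four passages of adaptation to each medium. They received library compounds in DMSO by pin dosing, 11 threefold points from 47 μM to 0.79 nM. Luminescence with CellTiter-Glo One was read after 48 h at 37°C. Viability is stated per plate relative to DMSO wells, with cell-free wells as background.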

[1] = HPLM + 10% dialyzed FBS, 0.000781 µM
[2] = HPLM + 10% dialyzed FBS, 0.00234 µM
[3] = HPLM + 10% dialyzed FBS, 0.00702 µM
[4] = HPLM + 10% dialyzed FBS, 0.0211 µM
[5] = HPLM + 10% dialyzed FBS, 0.0632 µM
[6] = HPLM + 10% dialyzed FBS, 0.19 µM
[7] = HPLM + 10% dialyzed FBS, 0.569 µM
[8] = HPLM + 10% dialyzed FBS, 1.71 µM
[9] = HPLM + 10% dialyzed FBS, 5.12 µM
[10] = HPLM + 10% dialyzed FBS, 15.4 µM
[11] = HPLM + 10% dialyzed FBS, 46.1 µM
[12] = RPMI 5 mM glucose + 10% FBS, 0.000781 µM
[13] = RPMI 5 mM glucose + 10% FBS, 0.00234 µM
[14] = RPMI 5 mM glucose + 10% FBS, 0.00702 µM
[15] = RPMI 5 mM glucose + 10% FBS, 0.0211 µM
[16] = RPMI 5 mM glucose + 10% FBS, 0.0632 µM
[17] = RPMI 5 mM glucose + 10% FBS, 0.19 µM
[18] = RPMI 5 mM glucose + 10% FBS, 0.569 µM
[19] = RPMI 5 mM glucose + 10% FBS, 1.71 µM
[20] = RPMI 5 mM glucose + 10% FBS, 5.12 µM
[21] = RPMI 5 mM glucose + 10% FBS, 15.4 µM
[22] = RPMI 5 mM glucose + 10% FBS, 46.1 µM
[23] = RPMI 5 mM glucose + 10% dialyzed FBS, 0.000781 µM
[24] = RPMI 5 mM glucose + 10% dialyzed FBS, 0.00234 µM
[25] = RPMI 5 mM glucose + 10% dialyzed FBS, 0.00702 µM
[26] = RPMI 5 mM glucose + 10% dialyzed FBS, 0.0211 µM
[27] = RPMI 5 mM glucose + 10% dialyzed FBS, 0.0632 µM
[28] = RPMI 5 mM glucose + 10% dialyzed FBS, 0.19 µM
[29] = RPMI 5 mM glucose + 10% dialyzed FBS, 0.569 µM
[30] = RPMI 5 mM glucose + 10% dialyzed FBS, 1.71 µM
[31] = RPMI 5 mM glucose + 10% dialyzed FBS, 5.12 µM
[32] = RPMI 5 mM glucose + 10% dialyzed FBS, 15.4 µM
[33] = RPMI 5 mM glucose + 10% dialyzed FBS, 46.1 µM

SMILES | cell viability [1] [%] | cell viability [2] [%] | cell viability [3] [%] | cell viability [4] [%] | cell viability [5] [%] | cell viability [6] [%] | cell viability [7] [%] | cell viability [8] [%] | cell viability [9] [%] | cell viability [10] [%] | cell viability [11] [%] | cell viability [12] [%] | cell viability [13] [%] | cell viability [14] [%] | cell viability [15] [%] | cell viability [16] [%] | cell viability [17] [%] | cell viability [18] [%] | cell viability [19] [%] | cell viability [20] [%] | cell viability [21] [%] | cell viability [22] [%] | cell viability [23] [%] | cell viability [24] [%] | cell viability [25] [%] | cell viability [26] [%] | cell viability [27] [%] | cell viability [28] [%] | cell viability [29] [%] | cell viability [30] [%] | cell viability [31] [%] | cell viability [32] [%] | cell viability [33] [%]
COc1cc2nc(-c3cc(F)ccc3O)nc(N[C@@H]3CNC[C@H]3C(C)(C)O)c2cc1OC | 111 | 115 | 108 | 128 | 93.5 | 122 | 124 | 109 | 109 | 89.4 | 38.4 | 107 | 105 | 108 | 103 | 101 | 115 | 109 | 122 | 114 | 106 | 49.4 | 101 | 97.8 | 100 | 118 | 106 | 112 | 112 | 96.6 | 99.6 | 88.4 | 53.7
COc1ccc([C@@H]2CC(=O)c3c(O)cc(O[C@@H]4O[C@H](CO[C@@H]5O[C@@H](C)[C@H](O)[C@@H](O)[C@H]5O)[C@@H](O)[C@H](O)[C@H]4O)cc3O2)cc1O | 106 | 104 | 121 | 111 | 115 | 97.7 | 112 | 123 | 117 | 109 | 117 | 102 | 100 | 121 | 117 | 105 | 105 | 110 | 102 | 108 | 124 | 120 | 94.3 | 101 | 115 | 122 | 124 | 107 | 123 | 116 | 114 | 114 | 104
COC1=C2C[C@@H](C)C[C@H](OC)[C@H](O)[C@@H](C)/C=C(\C)[C@H](OC(N)=O)[C@@H](OC)/C=C/C=C(\C)C(=O)NC(=CC1=O)C2=O | – | – | – | – | – | – | – | – | – | – | – | 108 | 119 | 104 | 119 | 109 | 111 | 109 | 110 | 101 | 80.4 | 4.86 | 112 | 111 | 123 | 113 | 115 | 114 | 113 | 121 | 123 | 81.3 | 5.45
CCCCCCCCCC(=O)N[C@@H](Cc1c[nH]c2ccccc12)C(=O)N[C@H](CC(N)=O)C(=O)N[C@@H](CC(=O)O)C(=O)N[C@@H]1C(=O)NCC(=O)N[C@@H](CCCN)C(=O)N[C@@H](CC(=O)O)C(=O)N[C@H](C)C(=O)N[C@@H](CC(=O)O)C(=O)NCC(=O)N[C@H](CO)C(=O)N[C@@H]([C@@H](C)CC(=O)O)C(=O)N[C@@H](CC(=O)c2ccccc2N)C(=O)O[C@@H]1C | 105 | 118 | 118 | 132 | 108 | 123 | 119 | 133 | 149 | 106 | 114 | 98.9 | 112 | 102 | 122 | 111 | 104 | 121 | 124 | 108 | 117 | 111 | 103 | 116 | 103 | 111 | 125 | 106 | 141 | 131 | 102 | 118 | 80.3
CC(C)c1cc(C(=O)N2Cc3ccc(CN4CCN(C)CC4)cc3C2)c(O)cc1O | 125 | 118 | 109 | 108 | 126 | 128 | 70.8 | 24 | 20.3 | 19.5 | 19.9 | 97.1 | 107 | 105 | 110 | 105 | 117 | 62.2 | 21.3 | 15.9 | 17.5 | 14.8 | 119 | 120 | 111 | 117 | 119 | 127 | 71.7 | 33.9 | 20.5 | 20.1 | 17.6
CC(C)C[C@H](NC(=O)CNC(=O)c1cc(Cl)ccc1Cl)B(O)O | 88.3 | 104 | 106 | 33.1 | 125 | 92 | 20.4 | 9.39 | 4.5 | 4.57 | 4.02 | 81.1 | 88.8 | 100 | 16.8 | 104 | 86.2 | 19.7 | 7.24 | 5.18 | 4.14 | 2.67 | 98.5 | 94.2 | 108 | 33.5 | 96.9 | 107 | 28.3 | 8.85 | 5.16 | 4.61 | 2.91
O=C(c1ccc(F)c(F)c1Nc1ccc(I)cc1F)N1CC(O)([C@@H]2CCCCN2)C1 | 96.3 | 91.9 | 97.4 | 108 | 90.9 | 70.1 | 56.4 | 41.8 | 15.1 | 13.3 | 14.3 | 91.4 | 99.9 | 98.2 | 93.4 | 92.5 | 74.1 | 61.8 | 29.1 | 8.07 | 7.33 | 5.28 | 89.4 | 99 | 93.9 | 102 | 100 | 69.7 | 58.6 | 44.1 | 10.1 | 10.2 | 11.6
